{"source": "paper PMC11218446", "about": "“Antibacterial efficacy and membrane mechanism of action of the Serratia-derived non-ionic lipopeptide, serrawettin W2-FL10” (Microbiology Spectrum, 2024)", "key": {"S. aureus RN4220 [1]": {"system": "S. aureus RN4220", "experiment": "Membrane permeability assay, propidium iodide", "assay_type": "cell-based, Staphylococcus aureus", "details": "25 µg/mL", "experimental": "(§1) The membrane permeability capabilities of the W2-FL10 against the S. aureus strains were determined using PI ([56]). Briefly, black 96-well plates were prepared with W2-FL10 at 6.25, 12.5, and 25 µg/mL, while 4–16 µg/mL of melittin was used as a positive permeability control, and the plates were dried as described in the “Antibacterial activity: broth microdilution assay” section. The S. aureus strains were inoculated into MHB, grown to mid-log phase (OD600 of 0.5–0.6), and diluted to OD600 of 0.3. PI (stock concentration of 1 mg/mL in analytical quality H2O) was added to the cell suspension to a final concentration of 10 µg/mL and cells were incubated in the dark at room temperature for 20 min. Thereafter, 100 µL of OD-adjusted PI cells in the mid-log phase were dispensed into each well. Sterile broth and the OD-adjusted inoculum with PI were included as a non-fluorescent control, while sterile broth with PI was included as a sterility control, and melittin was included as membrane depolarization control. All the tests were performed in triplicate, with independent duplicates. Fluorometric readings of the plate were conducted in 4-min intervals over 60 min (readings began ~60 s after cells were added to the plate) using a Tecan Spark at 535 nm excitation wavelength and 617 nm emission wavelength.\n(§2) The leakage kinetics or PI permeabilization kinetic was assessed using a rate parameter of ΔPI fluorescence per minute. This was done by fitting linear regression lines on the linear sections, namely 6–16 min for melittin and 6–18 min, as well as 34–50 min for W2-FL10. The rates of PI permeabilization were compared between the three S. aureus strains using a one-way ANOVA with Bonferroni’s post hoc test."}, "MRSA Xen 30": {"system": "MRSA Xen 30", "experiment": "Membrane permeability assay, propidium iodide", "assay_type": "cell-based, Staphylococcus aureus", "details": "25 µg/mL", "experimental": "as §1, §2"}, "S. aureus RN4220 [2]": {"system": "S. aureus RN4220", "experiment": "Broth microdilution assay (OD 600 nm)", "assay_type": "cell-based, Staphylococcus aureus", "experimental": "(§3) Serrawettin W2-FL10 (95% pure) was tested for antibacterial activity using a broth microdilution susceptibility assay ([6]), with melittin included as an antibiotic control. The serrawettin W2-FL10 was prepared in 70% MeCN to 1.00 mg/mL, from which aliquots were prepared using 70% MeCN to a concentration of 50 µg/mL or 500 µg/mL, while aliquots of melittin were prepared using analytical quality H2O to 128 µg/mL. Fifty microliters of the respective W2-FL10 aliquots or melittin were dispensed into a clear 96-well plate and a microdilution (in 70% MeCN for W2-FL10 or analytical quality H2O for melittin) was performed within the plate. The plate was air-dried to remove the solvent and placed in a desiccator with chloroform for 20 min for sterilization.\n(§4) All the cultures (inoculated into 5 mL MHB, or 5 mL TSB for Listeria and Enterococcus strains) were incubated at 37°C to reach an optical density (OD) of 0.4 at 600 nm (∼10^7 CFU/mL). A 1:20 dilution of the test strain (final concentration of ∼10^5 CFU/mL) was prepared and 100 µL was dispensed into each well (final concentration of W2-FL10 at 1.5–125 µg/mL and melittin at 2–32 µg/mL). Sterile broth and the OD-adjusted inoculum were included as positive controls, while sterile broth (no inoculum) was included as a negative control. The 96-well plate was incubated for 18 h at 37°C. All the tests were performed in triplicate, with independent duplicates. Following incubation, the absorbance was measured using a microtiter plate reader at 600 nm. The 50% growth inhibition concentration (IC50) was determined using GraphPad Prism version 5 for Windows [GraphPad Software, San Diego, USA (www.graphpad.com)]. A sigmodal curve with variable slope was fitted to each set of dose-repose data according to Rautenbach et al. ([17]) using equation (1):\n(§5) (1) Y=bottom+(top−bottom)/1+10^logIC50×Activity slope\n(§6) The “top” and “bottom” are the maximum and minimum inhibition responses, respectively, for a particular set of dose-response data, while the activity slope is related to the Hill slope of a sigmoidal binding curve ([16]). […] The MIC value was determined for each set of dose-response data as the lowest concentration, resulting in ≥90% inhibition of the target cell growth. In addition to the MIC and IC50 inhibition parameters, an inhibition concentration factor (ICF), was calculated as outlined in Rautenbach et al. ([17]). The ICF is indicative of the concentration increase from the highest concentration where no activity is observed to the MIC of a compound."}, "[3]": {"system": "S. aureus Xen 30 (MRSA Xen 30)", "experiment": "Broth microdilution assay (OD 600 nm)", "assay_type": "cell-based, Staphylococcus aureus", "experimental": "as §3, §4, §5, §6"}, "[4]": {"system": "tested Gram-negative bacterial strains", "experiment": "Broth microdilution assay (OD 600 nm)", "assay_type": "cell-based", "details": "results not shown", "source_text": "The S. marcescens NP2 strain was previously isolated from a wastewater treatment plant sample and the identity of the strain was confirmed via molecular typing ([47]). The S. marcescens NP2 strain was deposited in the South African Rhizobium Culture Collection (SARCC no. 3157). The test bacterial strains used in the broth microdilution assay included L. monocytogenes ATCC 13932, E. faecalis ATCC 7080, S. aureus ATCC 25923, S. aureus RN4220, MRSA Xen 30, E. faecalis S1, E. faecium S1, B. subtilis ATCC 6051, E. coli ATCC 417371, P. aeruginosa ATCC 27853, K. pneumoniae ATCC 13383, A. baumannii ATCC 19606, and S. typhimurium ATCC 14028. […]\nAll the cultures (inoculated into 5 mL MHB, or 5 mL TSB for Listeria and Enterococcus strains) were incubated at 37°C to reach an optical density (OD) of 0.4 at 600 nm (∼10^7 CFU/mL). […] Following incubation, the absorbance was measured using a microtiter plate reader at 600 nm. […]\nThe “top” and “bottom” are the maximum and minimum inhibition responses, respectively, for a particular set of dose-response data, while the activity slope is related to the Hill slope of a sigmoidal binding curve ([16]). […] In addition to the MIC and IC50 inhibition parameters, an inhibition concentration factor (ICF), was calculated as outlined in Rautenbach et al. ([17]). […]"}, "[5]": {"details": "50% growth inhibition, sigmoidal curve fit, n = 3"}, "[6]": {"details": "inhibition concentration factor"}, "[7]": {"details": "≥90% growth inhibition, OD 600 nm, MHB, 18 h 37°C"}}, "note": "Values joined by “and” are separate entries in the source; they are usually repeats but may differ in a detail not shown here. Equal entries are not always repeated.", "data": [{"smiles": "CCCCCCCC1CC(=O)N[C@H](CC(C)C)C(=O)N[C@@H](CO)C(=O)N[C@@H]([C@@H](C)O)C(=O)N[C@H](Cc2ccccc2)C(=O)N[C@@H](CC(C)C)C(=O)O1", "note": "(some centres unmarked) [W2-FL10, serrawettin W2-FL10]", "values": [{"measurement": "time within which ≥90% uptake in PI fluorescence was observed", "setting": "S. aureus RN4220 [1]", "value": "≤ 2,760 s"}, {"measurement": "time within which ≥90% uptake in PI fluorescence was observed", "setting": "MRSA Xen 30", "value": "≤ 3,240 s"}, {"measurement": "IC50 ± SD", "setting": "S. aureus RN4220 [2]; [5]", "value": "5.7 ± 0.6 (3) µg/mL"}, {"measurement": "Selectivity index", "setting": "S. aureus RN4220 [2]; LC50 (CHO)/IC50", "value": 5.1}, {"measurement": "ICF (MIC/IC50)^2", "setting": "S. aureus RN4220 [2]; [6]", "value": 4.9}, {"measurement": "MIC", "setting": "S. aureus RN4220 [2]; [7]", "value": "12.5 μg/mL and 12.5 (17.1) μg/mL"}, {"measurement": "IC50 ± SD", "setting": "[3]; [5]", "value": "5.7 ± 0.6 (3) µg/mL"}, {"measurement": "Selectivity index", "setting": "[3]; LC50 (CHO)/IC50", "value": 5.1}, {"measurement": "ICF (MIC/IC50)^2", "setting": "[3]; [6]", "value": 4.8}, {"measurement": "MIC", "setting": "[3]; [7]", "value": "12.5 μg/mL and 12.5 (17.1) μg/mL"}, {"measurement": "MIC", "setting": "[4]", "value": "> 125", "unit": "µg/mL"}]}]}
